Results from patent US20240415819A1, “MACROCYCLIC COMPOUNDS AS PROTEASOME SUBUNIT BETA TYPE-5 INHIBITORS” (Lead Discovery Center GmbH, priority 2021, published 2024).

How the values were obtained:
[1] = target: T1, β5 subunit of the human immunoproteasome (IPS) (Homo sapiens, UniProt P28062); assay: β5 inhibition assay, human immunoproteasome (Suc-LLVY-AMC); type: biochemical; conditions: IC50 class, Suc-LLVY-AMC substrate
T1 construct: purchased Boston Biochem E-370
Procedure, shortened: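 β5 activity is read as liberated AMC fluorescence (355/460 nm) after 4 h dark reaction at RT with 22.6 μM Suc-LLVY-AMC, stopped by 1 μM bortezomib. Beforehand, 1 nM human IPS and compound sat 10 min at RT in HEPES pH 7.5 buffer containing NaCl, 0.02% SDS and DTT.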

hPMBC = assay: Chymotrypsin-like ProteasomeGlo assay in hPBMC; type: cell-based; conditions: Homo sapiens; read-out: Pglo hPBMC
Description: Chymotrypsin-like ProteasomeGlo assay in the B-cells isolated from PBMC's following compound addition (IC50). • 1. PBMC's will be isolated from human blood followed by B-cell isolation from the PBMC's using the Miltenyi Isolation Kit. • 2. This experiment will use the Chymotrypsin-like ProteasomeGlo read-out to generate IC50's following compound treatment. • 3. Dilute all compounds 1:100 for the assay. • 4. […] Repeat the DMSO transfer with lane 12. • 5. Lane 12 should not be seeded with any cells. Only medium! • 6. For all steps, make sure the samples and reagents remain cool! • 7. While dealing with the buffy coats, be careful to not let any exposed skin to be in direct contact with the blood.
For the initial steps and to make processing the buffy coats easier, separately process the buffy coats. • a. Cut the tube attached to the buffy coats carefully using a clean, sterile and fresh scalpel. • b. Transfer the blood into 2 individual 50 ml falcons. • c. Add an equal volume of DPBS to the blood in the falcons. • d. Add ˜20 ml of lymphocyte separating medium to two 50 ml falcons. • e. Carefully pour 15-20 ml of the blood+DPBS mix from step c. onto the lymphocyte separating medium from step d. • f. Centrifuge the falcons with the lymphocyte separating medium+blood mix at 800×g for 15 minutes using a swing-out rotor. • g. Following centrifugation, carefully remove the falcons from the centrifuge. • h. The following layers will be observed: • i. Aspirate the plasma layer off carefully without disturbing the different layers. • j. Remove the cell pellet using a pipette into two fresh 50 ml falcons. • k. Fill the falcons with the cells up to 50 ml with DPBS. • l. Centrifuge the falcons at 250×g for 10 minutes using a swing-out rotor (Brake-off). • m. Aspirate the complete DPBS off the cells without disturbing the cell pellet at the bottom of the falcon. • n. Re-suspend the cell pellet in 10 ml of 1×RBC lysis buffer. • o. Incubate the falcons at room temperature in the dark for 10 minutes. • p. After RBC lysis, centrifuge the tubes at 250×g for 10 minutes using a swing-out rotor (brake-off). • (*Note: If the cell pellet is still red or light red, repeat steps n. to p.!) • q. Re-suspend the cell pellet in DPBS up to 50 ml in the falcon. • r. Centrifuge the falcons at 250×g for 10 minutes using a swing-out rotor (Brake-off). • s. Aspirate the DPBS off the cells without disturbing the cell pellet at the bottom of the falcon. • t. Repeat the wash step as described in steps q. to s. 2× times more (total number of washes is 3×). • u. Aspirate the DPBS completely off the cell pellet after the last wash without disturbing the cell pellet. • v. Re-suspend the cell pellet in 20 ml of PBMC cell medium. • w.
• a. Remove the plates with cells from the incubator. • b. Take all the plates including the compound plate, intermediate plate and Staurosporine plate to the ECHO. • c. Click on “Open” in the ECHO software and select the protocol “QLI5_25ul_30 uM-Grenier”. • d. Follow the on-screen prompts and instructions once you click “Start” to insert the compound plate, intermediate plate and destination plates. • e. Change the final number of destination plates on the program. • f. Follow the on-screen prompts and instructions once you click “Start” to load the Staurosporine and destination plates. • g. Once all the compounds, DMSO and Staurosporine have been transferred, place the destination plates in a wet tissue box. • h. Place the destination plates back into the incubator and incubate at 37° C., 5% CO2 for 105 minutes. • i. Re-seal all the compound+Stauro diamond and intermediate plates and store in the dark. Chymotrypsin like ProteasomeGlo Assay • 1. Thaw the components of the ProteasomeGlo assay at room temperature including the ProteasomeGlo Buffer, the lyophilized Luciferin Detection Reagent and the Suc-LLVY-Glo Substrate. • 2. […]

Row | Structure (SMILES) | IC50 [1] [µM] | IC50 (hPMBC) [µM]
1 | COC(C(=O)N[C@H]1CC(=O)N2CCCC(CCOc3ccc(C)c(c3)CNC(=O)[C@H](CCc3ccccc3)NC1=O)C2)c1ccc(N)cc1 (stereo partly drawn) [Compound 326, 2-(4-aminophenyl)-2-methoxy-N-((9S,12S)-5^4-methyl-8,11,14-trioxo-9-phenethyl-4-oxa-7,10-diaza-1(3,1)-piperidina-5(1,3)-benzenacyclotetradecaphane-12-yl)acetamide] | < 0.1 | < 0.1
2 | Cc1ccc2cc1CNC(=O)C(CCc1ccccc1)NC(=O)[C@@H](NC(=O)OCc1ccccc1)CC(=O)N1CCCC(CCO2)C1 (stereo partly drawn) [Compound 503, benzyl ((12S)-9-phenethyl-5^4-methyl-8,11,14-trioxo-4-oxa-7,10-diaza-1(3,1)-piperidina-5(1,3)-benzenacyclotetradecaphane-12-yl)carbamate] | < 0.1 | 0.1 to 0.5
3 | COc1cccc(CC(=O)N[C@H]2CC(=O)N3CCCC(CCOc4ccc(C)c(c4)CNC(=O)C(c4cnn(C)c4)NC2=O)C3)c1 (stereo partly drawn) [Compound 362, 2-(3-methoxyphenyl)-N-((12S)-5^4-methyl-9-(1-methyl-1H-pyrazol-4-yl)-8,11,14-trioxo-4-oxa-7,10-diaza-1(3,1)-piperidina-5(1,3)-benzenacyclotetradecaphane-12-yl)acetamide] | < 0.1 | < 0.1
4 | Cc1ccc2cc1CNC(=O)C(CCc1ccncc1)NC(=O)[C@@H](NC(=O)Cc1nnc(N)s1)CC(=O)N1CCCC(CCO2)C1 (stereo partly drawn) [Compound 342, 2-(5-amino-1,3,4-thiadiazol-2-yl)-N-((12S)-5^4-methyl-8,11,14-trioxo-9-(2-(pyridin-4-yl)ethyl)-4-oxa-7,10-diaza-1(3,1)-piperidina-5(1,3)-benzenacyclotetradecaphane-12-yl)acetamide] | < 0.1 | < 0.1
5 | Cc1nc(C2NC(=O)[C@@H](NC(=O)OCc3ccccc3)CC(=O)N3CCCC(CCOc4ccc(C)c(c4)CNC2=O)C3)co1 (stereo partly drawn) [Compound 512, benzyl ((12S)-5^4-methyl-9-(2-methyloxazol-4-yl)-8,11,14-trioxo-4-oxa-7,10-diaza-1(3,1)-piperidina-5(1,3)-benzenacyclotetradecaphane-12-yl)carbamate] | < 0.1 | < 0.1
6 | Cc1ccc2cc1CNC(=O)[C@H](CCc1ccccc1)NC(=O)[C@@H](NC(=O)OCc1ccccc1)CCC(=O)N1CCC(CCO2)C1 (stereo partly drawn) [Compound 350, benzyl ((9S,12S)-5^4-methyl-8,11,15-trioxo-9-phenethyl-4-oxa-7,10-diaza-1(3,1)-pyrrolidina-5(1,3)-benzenacyclopentadecaphane-12-yl)carbamate] | < 0.1 | < 0.1
7 | CC(=O)N[C@H]1CC(=O)N2CCCC(CCOc3ccc(C)c(c3)CNC(=O)C(c3cc(C)sn3)NC1=O)C2 (stereo partly drawn) [Compound 556, N-((12S)-5^4-methyl-9-(5-methylisothiazol-3-yl)-8,11,14-trioxo-4-oxa-7,10-diaza-1(3,1)-piperidina-5(1,3)-benzenacyclotetradecaphane-12-yl)acetamide] | < 0.1 | < 0.1
8 | CC(=O)N[C@H]1CC(=O)N2CCCC(CCOc3ccc(C)c(c3)CNC(=O)C(c3cnn(-c4ccccc4)c3)NC1=O)C2 (stereo partly drawn) [Compound 559, N-((12S)-5^4-methyl-8,11,14-trioxo-9-(1-phenyl-1H-pyrazol-4-yl)-4-oxa-7,10-diaza-1(3,1)-piperidina-5(1,3)-benzenacyclotetradecaphane-12-yl)acetamide] | < 0.1 | < 0.1
9 | Cc1ccc2cc1CNC(=O)[C@H](CCc1ccccc1)NC(=O)[C@@H](NC(=O)Cc1nc(-c3ccncc3)n[nH]1)CC(=O)N1CCCC(CCO2)C1 (stereo partly drawn) [Compound 329, N-((9S,12S)-5^4-methyl-8,11,14-trioxo-9-phenethyl-4-oxa-7,10-diaza-1(3,1)-piperidina-5(1,3)-benzenacyclotetradecaphane-12-yl)-2-(3-(pyridin-4-yl)-1H-1,2,4-triazol-5-yl)acetamide] | < 0.1 | 0.1 to 0.5
10 | Cc1ccc2cc1CNC(=O)C(CCc1ccncc1)NC(=O)[C@@H](NC(=O)C1(c3ccc(N)cc3)CC1)CC(=O)N1CCCC(CCO2)C1 (stereo partly drawn) [Compound 343, 1-(4-aminophenyl)-N-((12S)-5^4-methyl-8,11,14-trioxo-9-(2-(pyridin-4-yl)ethyl)-4-oxa-7,10-diaza-1(3,1)-piperidina-5(1,3)-benzenacyclotetradecaphane-12-yl)cyclopropane-1-carboxamide] | < 0.1 | < 0.1
11 | Cc1ccc2cc1CNC(=O)[C@H](CCc1ccccc1)NC(=O)[C@@H](NC(=O)OCc1ccccc1)CCCCC(=O)NCCCCO2 [Compound 347, benzyl ((13S,16S)-1^4-methyl-8,14,17-trioxo-16-phenethyl-2-oxa-7,15,18-triaza-1(1,3)-benzenacyclononadecaphane-13-yl)carbamate] | < 0.1 | < 0.1
12 | Cc1ccc2cc1CNC(=O)[C@H](CCc1ccccc1)NC(=O)[C@@H](NC(=O)Cc1ccccc1F)CC(=O)N1CCCC(CCO2)C1 (stereo partly drawn) [Compound 333, 2-(2-fluorophenyl)-N-((9S,12S)-5^4-methyl-8,11,14-trioxo-9-phenethyl-4-oxa-7,10-diaza-1(3,1)-piperidina-5(1,3)-benzenacyclotetradecaphane-12-yl)acetamide] | < 0.1 | < 0.1
13 | Cc1ccc2cc1CNC(=O)[C@H](CCc1ccccc1)NC(=O)[C@@H](NC(=O)Cc1nnc(N)s1)CC(=O)N1CCCC(CCO2)C1 (stereo partly drawn) [Compound 310, 2-(5-amino-1,3,4-thiadiazol-2-yl)-N-((9S,12S)-54-methyl-8,11,14-trioxo-9-phenethyl-4-oxa-7,10-diaza-1(3,1)-piperidina-5(1,3)-benzenacyclotetradecaphane-12-yl)acetamide] | < 0.1 | < 0.1
14 | Cc1ccc2cc1CNC(=O)[C@H](CCc1ccccc1)NC(=O)[C@@H](NC(=O)CC(C)(C)C)CC(=O)N1CCCC(CCO2)C1 (stereo partly drawn) [Compound 28, 3,3-dimethyl-N-((9S,12S)-5^4-methyl-8,11,14-trioxo-9-phenethyl-4-oxa-7,10-diaza-1(3,1)-piperidina-5(1,3)-benzenacyclotetradecaphane-12-yl)butanamide] | < 0.1 | 0.1 to 0.5
15 | CC(=O)N[C@H]1CC(=O)N2CCCC(CCOc3ccc(C)c(c3)CNC(=O)C(c3coc(C)n3)NC1=O)C2 (stereo partly drawn) [Compound 553, N-((12S)-5^4-methyl-9-(2-methyloxazol-4-yl)-8,11,14-trioxo-4-oxa-7,10-diaza-1(3,1)-piperidina-5(1,3)-benzenacyclotetradecaphane-12-yl)acetamide] | < 0.1 | < 0.1
16 | Cc1ccc2cc1CNC(=O)[C@H](CCc1ccccc1)NC(=O)[C@@H](NC(=O)c1ccc3cc(N)ccc3c1)CC(=O)N1CCCC(CCO2)C1 (stereo partly drawn) [Compound 339, 6-amino-N-((9S,12S)-5^4-methyl-8,11,14-trioxo-9-phenethyl-4-oxa-7,10-diaza-1(3,1)-piperidina-5(1,3)-benzenacyclotetradecaphane-12-yl)-2-naphthamide] | < 0.1 | 0.1 to 0.5
17 | Cc1ccc2cc1CNC(=O)C(CCc1ccc(C3(C)COC3)cc1)NC(=O)[C@@H](NC(=O)OCc1ccccc1)CC(=O)N1CCCC(CCO2)C1 (stereo partly drawn) [Compound 510, benzyl ((12S)-5^4-methyl-9-(4-(3-methyloxetan-3-yl)phenethyl)-8,11,14-trioxo-4-oxa-7,10-diaza-1(3,1)-piperidina-5(1,3)-benzenacyclotetradecaphane-12-yl)carbamate] | < 0.1 | < 0.1
